{
  "source": "ChEMBL document CHEMBL2176881",
  "about": "“Development of N-[4-[6-(isopropylamino)pyrimidin-4-yl]-1,3-thiazol-2-yl]-N-methyl-4-[11C]methylbenzamide for positron emission tomography imaging of metabotropic glutamate 1 receptor in monkey brain” (J Med Chem, 2012)",
  "key": {"[1]": {"target": "Metabotropic glutamate receptor 5 (Rattus norvegicus, UniProt P31424)", "sequence (P31424 whole entry)": "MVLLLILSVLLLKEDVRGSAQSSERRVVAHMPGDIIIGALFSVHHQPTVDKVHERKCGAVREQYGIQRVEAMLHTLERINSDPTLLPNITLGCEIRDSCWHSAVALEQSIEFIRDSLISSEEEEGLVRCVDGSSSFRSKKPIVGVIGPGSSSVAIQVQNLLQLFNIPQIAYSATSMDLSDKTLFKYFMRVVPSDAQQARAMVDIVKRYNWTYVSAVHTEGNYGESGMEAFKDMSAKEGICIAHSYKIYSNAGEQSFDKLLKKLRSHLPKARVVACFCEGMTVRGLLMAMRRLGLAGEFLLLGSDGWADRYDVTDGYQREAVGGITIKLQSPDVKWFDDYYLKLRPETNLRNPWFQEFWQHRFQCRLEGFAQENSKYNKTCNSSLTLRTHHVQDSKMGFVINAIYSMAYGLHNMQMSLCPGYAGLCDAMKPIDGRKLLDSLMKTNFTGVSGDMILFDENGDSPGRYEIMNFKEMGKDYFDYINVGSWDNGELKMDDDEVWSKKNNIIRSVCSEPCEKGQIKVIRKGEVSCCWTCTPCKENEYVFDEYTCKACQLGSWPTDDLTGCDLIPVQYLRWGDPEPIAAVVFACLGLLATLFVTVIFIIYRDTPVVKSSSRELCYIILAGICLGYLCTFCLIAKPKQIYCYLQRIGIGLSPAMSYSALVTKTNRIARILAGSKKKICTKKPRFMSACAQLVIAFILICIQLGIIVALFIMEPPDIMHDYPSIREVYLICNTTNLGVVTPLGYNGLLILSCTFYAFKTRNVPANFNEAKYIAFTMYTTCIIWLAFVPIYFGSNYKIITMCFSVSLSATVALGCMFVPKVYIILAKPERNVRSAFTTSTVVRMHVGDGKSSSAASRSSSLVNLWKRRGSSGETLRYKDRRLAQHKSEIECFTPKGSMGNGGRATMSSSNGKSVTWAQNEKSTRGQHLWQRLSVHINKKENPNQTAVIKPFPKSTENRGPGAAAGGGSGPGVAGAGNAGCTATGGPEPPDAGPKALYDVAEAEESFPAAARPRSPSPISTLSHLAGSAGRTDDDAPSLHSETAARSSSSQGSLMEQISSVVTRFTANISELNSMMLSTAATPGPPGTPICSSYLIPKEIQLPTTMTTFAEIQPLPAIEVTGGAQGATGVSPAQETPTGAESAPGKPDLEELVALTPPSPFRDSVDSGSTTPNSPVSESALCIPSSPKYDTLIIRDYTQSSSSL", "assay": "Displacement of [11C]-ABP688 from mGlu5 receptor in rat brain homogenates after 1 hr by gamma counting", "assay_type": "tissue-based"}, "[2]": {"target": "Metabotropic glutamate receptor 1 (Rattus norvegicus, UniProt P23385)", "sequence (P23385 whole entry)": "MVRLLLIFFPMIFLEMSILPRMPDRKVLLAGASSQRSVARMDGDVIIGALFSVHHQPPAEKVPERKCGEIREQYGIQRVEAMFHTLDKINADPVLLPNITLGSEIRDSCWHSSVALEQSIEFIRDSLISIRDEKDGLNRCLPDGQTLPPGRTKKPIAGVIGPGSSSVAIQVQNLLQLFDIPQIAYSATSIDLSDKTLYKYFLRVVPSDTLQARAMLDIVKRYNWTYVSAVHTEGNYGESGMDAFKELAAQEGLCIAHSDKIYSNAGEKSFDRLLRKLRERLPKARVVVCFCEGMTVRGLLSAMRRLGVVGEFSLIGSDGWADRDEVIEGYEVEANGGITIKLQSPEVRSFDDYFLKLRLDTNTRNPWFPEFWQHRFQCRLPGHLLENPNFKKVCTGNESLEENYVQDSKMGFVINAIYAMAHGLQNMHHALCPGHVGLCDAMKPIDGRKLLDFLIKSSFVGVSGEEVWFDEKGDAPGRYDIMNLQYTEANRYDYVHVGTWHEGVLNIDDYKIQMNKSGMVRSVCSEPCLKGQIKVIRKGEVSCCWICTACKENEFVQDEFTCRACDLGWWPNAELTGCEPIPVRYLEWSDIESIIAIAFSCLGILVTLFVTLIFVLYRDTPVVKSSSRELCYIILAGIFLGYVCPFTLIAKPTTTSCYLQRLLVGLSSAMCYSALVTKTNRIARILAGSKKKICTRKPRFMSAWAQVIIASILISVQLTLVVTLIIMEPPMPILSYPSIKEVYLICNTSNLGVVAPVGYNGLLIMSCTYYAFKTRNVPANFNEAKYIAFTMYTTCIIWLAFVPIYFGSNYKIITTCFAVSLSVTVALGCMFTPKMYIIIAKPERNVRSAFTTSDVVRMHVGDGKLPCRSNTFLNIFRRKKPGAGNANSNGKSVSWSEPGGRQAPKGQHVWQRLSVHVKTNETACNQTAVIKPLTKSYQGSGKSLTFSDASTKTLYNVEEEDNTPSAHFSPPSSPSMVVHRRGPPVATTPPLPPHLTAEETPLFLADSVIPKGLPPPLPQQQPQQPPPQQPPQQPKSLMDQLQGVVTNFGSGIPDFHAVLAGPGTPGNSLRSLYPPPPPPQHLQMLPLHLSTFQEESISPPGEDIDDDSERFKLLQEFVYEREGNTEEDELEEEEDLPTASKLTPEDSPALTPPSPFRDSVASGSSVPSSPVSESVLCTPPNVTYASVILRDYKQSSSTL", "assay": "Displacement of [18F]FITM from mGlu1 receptor in rat brain homogenates after 1 hr by gamma counting", "assay_type": "tissue-based"}, "[3]": {"target": "Metabotropic glutamate receptor 1 (Rattus norvegicus) (UniProt P23385)", "sequence (P23385 19-1199 limits assumed)": "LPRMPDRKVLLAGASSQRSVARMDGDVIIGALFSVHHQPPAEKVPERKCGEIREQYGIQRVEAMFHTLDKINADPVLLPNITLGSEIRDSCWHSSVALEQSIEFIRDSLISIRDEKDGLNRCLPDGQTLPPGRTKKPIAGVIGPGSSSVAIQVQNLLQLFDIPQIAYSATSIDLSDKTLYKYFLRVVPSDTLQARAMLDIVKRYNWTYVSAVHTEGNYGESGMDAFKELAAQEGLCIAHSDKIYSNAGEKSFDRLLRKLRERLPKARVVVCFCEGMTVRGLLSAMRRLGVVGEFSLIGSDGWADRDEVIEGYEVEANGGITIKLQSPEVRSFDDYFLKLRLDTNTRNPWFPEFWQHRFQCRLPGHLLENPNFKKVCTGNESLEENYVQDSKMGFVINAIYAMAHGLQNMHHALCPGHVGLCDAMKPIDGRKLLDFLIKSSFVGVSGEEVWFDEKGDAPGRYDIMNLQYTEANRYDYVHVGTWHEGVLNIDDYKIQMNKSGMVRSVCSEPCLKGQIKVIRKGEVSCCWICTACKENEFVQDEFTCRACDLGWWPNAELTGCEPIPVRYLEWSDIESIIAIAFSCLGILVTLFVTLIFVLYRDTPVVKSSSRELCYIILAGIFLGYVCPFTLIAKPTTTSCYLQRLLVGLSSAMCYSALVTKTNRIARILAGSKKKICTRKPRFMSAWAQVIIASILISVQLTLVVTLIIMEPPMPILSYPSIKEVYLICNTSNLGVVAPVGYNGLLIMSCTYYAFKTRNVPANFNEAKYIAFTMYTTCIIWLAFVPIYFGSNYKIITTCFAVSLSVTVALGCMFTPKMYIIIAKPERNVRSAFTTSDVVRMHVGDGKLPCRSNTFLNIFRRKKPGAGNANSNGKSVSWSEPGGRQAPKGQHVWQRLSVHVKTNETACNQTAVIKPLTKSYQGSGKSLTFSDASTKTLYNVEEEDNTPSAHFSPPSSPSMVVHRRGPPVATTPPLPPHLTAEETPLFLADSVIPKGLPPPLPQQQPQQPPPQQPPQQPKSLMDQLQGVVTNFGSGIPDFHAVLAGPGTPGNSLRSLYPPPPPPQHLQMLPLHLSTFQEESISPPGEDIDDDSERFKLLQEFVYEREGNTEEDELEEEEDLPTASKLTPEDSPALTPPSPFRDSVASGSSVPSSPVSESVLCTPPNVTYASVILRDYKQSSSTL", "assay": "Binding affinity to mGlu1 receptor in rat thalamus at 7.4 MBq after 60 mins by autoradiography", "assay_type": "tissue-based", "conditions": "7.4 M, tested as the 14C-labelled form"}, "[4]": {"assay": "Lipophilicity, log D of the compound by shake flask method", "assay_type": "physicochemical", "conditions": "octanol/water"}, "[5]": {"target": "Metabotropic glutamate receptor 1 (Rattus norvegicus) (UniProt P23385)", "assay": "Binding affinity to mGlu1 receptor in rat hippocampus", "assay_type": "tissue-based"}, "[6]": {"target": "Metabotropic glutamate receptor 1 (Rattus norvegicus) (UniProt P23385)", "assay": "Binding affinity to mGlu1 receptor in rat brain cerebral cortex at 7.4 MBq after 60 mins by autoradiography", "assay_type": "tissue-based", "conditions": "7.4 M, tested as the 14C-labelled form"}, "[7]": {"target": "Metabotropic glutamate receptor 1 (Rattus norvegicus) (UniProt P23385)", "assay": "Binding affinity to mGlu1 receptor in rat striatum at 7.4 MBq after 60 mins by autoradiography", "assay_type": "tissue-based", "conditions": "7.4 M, tested as the 14C-labelled form"}, "[8]": {"target": "Metabotropic glutamate receptor 1 (Rattus norvegicus) (UniProt P23385)", "assay": "Binding affinity to mGlu1 receptor in rat brain homogenates at 7.4 MBq after 60 mins by autoradiography in presence of unlabeled N-[4-[6-(Isopropylamino)pyrimidin-4-yl]-1,3-thiazol-2-yl]- N,4-dimethylbenzamide", "assay_type": "tissue-based", "conditions": "7.4 M, tested as the 14C-labelled form"}, "[9]": {"target": "Metabotropic glutamate receptor 1 (Rattus norvegicus) (UniProt P23385)", "assay": "Binding affinity to mGlu1 receptor in rat cerebellum at 7.4 MBq after 60 mins by autoradiography", "assay_type": "tissue-based", "conditions": "7.4 M, tested as the 14C-labelled form"}, "[10]": {"target": "Metabotropic glutamate receptor 1 (Rattus norvegicus) (UniProt P23385)", "assay": "Binding affinity to mGlu1 receptor in rat brain substantia nigra pars reticulate at 7.4 MBq after 60 mins by autoradiography", "assay_type": "tissue-based", "conditions": "7.4 M, tested as the 14C-labelled form"}, "[11]": {"target": "Metabotropic glutamate receptor 1 (Rattus norvegicus) (UniProt P23385)", "assay": "Binding affinity to mGlu1 receptor in rat brain homogenates at 7.4 MBq after 60 mins by autoradiography in presence of unlabeled 4-(6-chloropyrimidin-4-yl)-N-methylthiazol-2-amine", "assay_type": "tissue-based", "conditions": "7.4 M, tested as the 14C-labelled form"}, "[12]": {"target": "Metabotropic glutamate receptor 1 (Rattus norvegicus) (UniProt P23385)", "assay": "Binding affinity to mGlu1 receptor in rat hippocampus at 7.4 MBq after 60 mins by autoradiography", "assay_type": "tissue-based", "conditions": "7.4 M, tested as the 14C-labelled form"}, "[13]": {"target": "Metabotropic glutamate receptor 1 (Rattus norvegicus) (UniProt P23385)", "assay": "Binding affinity to mGlu1 receptor in rat brain pons at 7.4 MBq after 60 mins by autoradiography", "assay_type": "tissue-based", "conditions": "7.4 M, tested as the 14C-labelled form"}, "[14]": {"target": "Metabotropic glutamate receptor 1 (Rattus norvegicus) (UniProt P23385)", "assay": "Binding affinity to mGlu1 receptor in rat striatum", "assay_type": "tissue-based"}, "[15]": {"target": "Metabotropic glutamate receptor 1 (Rattus norvegicus) (UniProt P23385)", "assay": "Binding affinity to mGlu1 receptor in rat thalamus", "assay_type": "tissue-based"}},
  "note": "The source made the active and inactive calls. The calls are words filed in the database; no cut-off is given here.",
  "data": [
    {"molecule": "CC(C)Nc1cc(-c2csc(N(C)C(=O)c3ccc(Cl)cc3)n2)ncn1", "values": [
      {"measurement": "IC50", "setting": "[1]", "result": "> 10", "unit": "µM"},
      {"measurement": "IC50", "setting": "[2]", "result": 0.047, "unit": "µM"},
      {"measurement": "Ki", "setting": "[2]", "result": 0.0222, "unit": "µM"}
    ]},
    {"molecule": "Cc1ccc(C(=O)N(C)c2nc(-c3cc(NC(C)C)ncn3)cs2)cc1", "values": [
      {"measurement": "Activity", "setting": "[3]", "result": "Active"},
      {"measurement": "logD", "setting": "[4]", "result": 1.74},
      {"measurement": "Activity", "setting": "[5]", "result": 27.5, "unit": "nM"},
      {"measurement": "IC50", "setting": "[1]", "result": "> 10", "unit": "µM"},
      {"measurement": "Activity", "setting": "[6]", "result": "Active"},
      {"measurement": "Activity", "setting": "[7]", "result": "Active"},
      {"measurement": "IC50", "setting": "[2]", "result": 0.0265, "unit": "µM"},
      {"measurement": "Ki", "setting": "[2]", "result": 0.0136, "unit": "µM"},
      {"measurement": "Activity", "setting": "[8]", "result": "inactive"},
      {"measurement": "Activity", "setting": "[9]", "result": "Active"},
      {"measurement": "Activity", "setting": "[10]", "result": "Active"},
      {"measurement": "Activity", "setting": "[11]", "result": "inactive"},
      {"measurement": "Activity", "setting": "[12]", "result": "Active"},
      {"measurement": "Activity", "setting": "[13]", "result": "Active"},
      {"measurement": "Activity", "setting": "[14]", "result": 22.2, "unit": "nM"},
      {"measurement": "Activity", "setting": "[15]", "result": 36.3, "unit": "nM"}
    ]},
    {"molecule": "CC(C)Nc1cc(-c2csc(N(C)C(=O)c3ccc(C#N)cc3)n2)ncn1", "values": [
      {"measurement": "IC50", "setting": "[1]", "result": "> 10", "unit": "µM"},
      {"measurement": "IC50", "setting": "[2]", "result": 0.0647, "unit": "µM"},
      {"measurement": "Ki", "setting": "[2]", "result": 0.0273, "unit": "µM"}
    ]}
  ]
}
